Experimental data published in patent publication US20090176817A1, “Method of Treatment of Diarrhea-Predominant Irritable Bowel Syndrome in a Subject” (priority 2005, published 2009).
Marks after values point to notes of the source that are not given here.

Legend:
clinical [1] = details: human, in vivo, iv
Procedure: The pharmacokinetics of intravenously administered cilansetron have also been evaluated in several studies. In a randomized, double-blind, placebo controlled, rising dose, crossover study in 24 male subjects, aged 23-37 years, the single-dose pharmacokinetics of IV cilansetron were evaluated over a 4 mg to 16 mg dose range. Subjects received, at intervals of 1 week, single doses of 4, 8, and 16 mg IV cilansetron in ascending order and a randomized placebo. Infusion times ranged from 15-30 minutes. All doses were administered under fasted conditions.
In a randomized, double-blind, placebo controlled, rising dose, crossover study, 24 male subjects (aged 23-37 years) received single doses of 4, 8, and 16 mg IV cilansetron in ascending order and a randomized placebo, infused over 15-30 minutes. All doses were administered under fasted conditions. FIG. 14 and FIG. 15 present box plots of cilansetron AUC(0-inf) and dose-normalized AUC(0-inf) values (normalized to a 1 mg dose), respectively, and Table 2.7.2.3.13 presents descriptive statistics for the results of statistical pairwise comparisons of dose-normalized parameters between doses.

healthy subjects = assay: Study S.241.2.106: colonic motility index; assay type: in vivo, human; details: for colonic motility index, Comparison to Placebo: Ratio: ANOVA; for colonic motility index: arith. mean
Procedure: The effect of cilansetron on colonic motility was evaluated in a randomized, double-blind, placebo-controlled, 3-way crossover study in 12 healthy male and female subjects (ITT population), aged 24-34 years. Subjects received cilansetron 4 mg, cilansetron 8 mg, or placebo orally TID for 7 days during each of the treatment periods, with a 7-day washout between periods. Colonic motility assessments were done on the last day of each treatment period, around the time of the last dose. Subjects were fasted for 12 hours prior to start of colonic assessments. Colonic motor activity was recorded from 30 minutes prior to dosing until 240 minutes postdose. A high-calorie meal was administered at 1 hour postdose and 1 mg neostigmine was administered intramuscularly at 2.5 hours postdose. The main objective of the assessments was to establish whether cilansetron was able to reduce colonic motor activity after meal ingestion and after neostigmine injection. The main parameter of interest was the motility index, which was measured in intervals of ten minutes for a total period of 150 minutes postprandially. The time intervals of major interest were the 30-minute interval after start of meal ingestion (91-120 minutes) and the 30-minute interval after neostigmine injection (181-210 minutes). An ANOVA was used to compare the motility indices between treatments.

[2] = assay type: in vitro ADME; details: human
Procedure: Protein binding was also evaluated in an in vitro study in human, mouse, rat, and dog plasma using equilibrium dialysis (12-14K molecular weight cut-off membrane). […] This study also measured the binding of (^14C)-cilansetron to purified human serum albumin at cilansetron concentrations ranging from 30-3000 ng/mL and to purified human alpha-1 acid glycoprotein (AAG) at concentrations ranging from 30-10000 ng/mL.

CYP3A4 = details: hepatocytes
clinical [3] = details: both, human, in vivo, po, 16 mg
Procedure: In a randomized, double-blind, placebo-controlled, 2-way crossover study in 9 male and 9 female healthy subjects (ITT population, aged 21-39 years), subjects were randomized to receive 2 treatments (cilansetron 16 mg tablet and placebo) during the 2 treatment periods. During each treatment period, subjects received a single dose of their assigned treatment on the first day (Day 1), after which they received the same treatment TID for 4 days (Days 2-5). There was a 10-day washout period between treatment periods. Subjects were fasted for at least 2 hours before and following each dose, and heavy physical activity was restricted. Serial 12-lead ECGs was recorded up to 24 hours following dosing on Day 1 (single dose) and on the last day (Day 5) of each treatment period. Heart rate and ECG intervals (RR, PR, QRS, and QT) were measured electronically, but were manually verified and corrected if needed by the investigator. QT intervals were corrected (QTc) electronically for heart rate using the Bazett's correction. Mean and maximum QTc intervals were calculated over different time intervals postdose and were compared between treatments using an ANOVA accounting for sequence, gender, subject within sequence and gender, period, and treatment effects.

[4] = system: healthy, elderly subjects; assay: Study K.241.5014: gastric emptying time, elderly, 8 mg TID; assay type: in vivo, human; details: 8 mg TID oral 14 days, mean (SD)
Excerpt: The effect of cilansetron on gastric emptying time and colonic transit time has been studied in 1 clinical study in healthy young subjects and 2 studies in elderly subjects. For measurement of gastric emptying time, breath samples for the determination of the ^12C/^13C ratio were taken on the last day of each treatment period immediately after ingestion of a ^13C labeled meal. The patients' breath was collected in separate 15-minute intervals, for four hours in total. ^13CO2 measurements were performed with an isotope ratio mass spectrometer. The half-life (TK) and lag-time (Tlag), which describe the duration of gastric emptying, were used as the primary parameters to evaluate gastric emptying time. In all 3 studies, colonic transit time was measured by administration of radio-opaque markers for the last six days of each treatment period, followed by a single abdominal X-ray image at 24 hours after ingestion of the last set of markers. The numbers of markers within the colon were used to calculate segmental (right colon, left colon, and rectosigmoid) and total colonic transit time.
Studies K.241.5013 and K.241.5014 were randomized, double-blind, placebo-controlled, 2-way crossover studies in 8 healthy male and female elderly subjects, each (ITT population, aged 64-83 years in K.241.5013 and 66-84 years in K.241.5014). […]

[5] = After Meal Ingestion, 4 mg TID oral 7 days
[6] = After Meal Ingestion, 8 mg TID oral 7 days
[7] = After Neostigmine, 4 mg TID oral 7 days
[8] = After Neostigmine, 8 mg TID oral 7 days

With `Cc1nccn1C[C@H]1CCc2c(c3cccc4c3n2CCC4)C1=O` [Cilansetron, (R)-(−)-4,5,6,8,9,10-hexahydro-10-[(2-methyl-1H-imidazol-1-yl)methyl]-11H-pyrido-[3,2,1-jk]-carbazol-11-one] the clearance (clinical [1]) was 550 to 800 mL/min, the “DN-AUC(0-inf) ratio 8 mg/4 mg” value (clinical [1]; male) was 121% and the “DN-AUC(0-inf) ratio 16 mg/4 mg” value (clinical [1]; male) was 124%. The “DN-AUC(0-inf) ratio 16 mg/8 mg” value (clinical [1]; male) was 102%, the “DN-AUC(0-last) ratio 8 mg/4 mg” value (clinical [1]; male) was 123% and the “DN-AUC(0-last) ratio 16 mg/4 mg” value (clinical [1]; male) was 126%. The “DN-AUC(0-last) ratio 16 mg/8 mg” value (clinical [1]; male) was 102%, the Renal elimination (clinical [1]; male) was < 1 % of dose and the clearance (clinical [1]; male) was 550 to 700 mL/min. For the same compound, the half-life (clinical [1]; male) was 1.4 to 1.7 h, the AUC(0-inf) (clinical [1]; male, 4 mg) was 103 ng·h/mL and the AUC(0-t) (clinical [1]; male, 4 mg) was 100 ng·h/mL. It also gave a CL renal (clinical [1]; male, 4 mg) of 2.95 mL/min, a Vd (clinical [1]; male, 4 mg) of 99 L and a clearance (clinical [1]; male, 4 mg) of 680 mL/min. It also gave a half-life (clinical [1]; male, 4 mg) of 1.7 h, an AUC(0-inf) (clinical [1]; male, 8 mg) of 254 ng·h/mL and an AUC(0-t) (clinical [1]; male, 8 mg) of 251 ng·h/mL. It also gave a CL renal (clinical [1]; male, 8 mg) of 2.64 mL/min, a Vd (clinical [1]; male, 8 mg) of 78 L and a clearance (clinical [1]; male, 8 mg) of 567 mL/min. For the same compound, the half-life (clinical [1]; male, 8 mg) was 1.62 h, the AUC(0-inf) (clinical [1]; male, 16 mg) was 525 ng·h/mL and the AUC(0-t) (clinical [1]; male, 16 mg) was 518 ng·h/mL. For the same compound, the CL renal (clinical [1]; male, 16 mg) was 2.65 mL/min, the Vd (clinical [1]; male, 16 mg) was 68 L and the clearance (clinical [1]; male, 16 mg) was 564 mL/min. The half-life (clinical [1]; male, 16 mg) was 1.41 h, the “colonic motility index, Comparison to Placebo: Ratio” value (“colonic motility index … Ratio” below) (healthy subjects; [5]) was 101% and the colonic motility index (healthy subjects; [5]) was 20358. The “colonic motility index … Ratio” value (healthy subjects; [6]) was 106%, the colonic motility index (healthy subjects; [6]) was 23478 and the “colonic motility index … Ratio” value (healthy subjects; [7]) was 192%. For the same compound, the colonic motility index (healthy subjects; [7]) was 50580, the “colonic motility index … Ratio” value (healthy subjects; [8]) was 162% and the colonic motility index (healthy subjects; [8]) was 48691. For the same compound, the Protein bound [2] was 93-96%, the “CYP3A4 mRNA induction” value (CYP3A4) was “did not induce” and the Tmax (clinical [3]) was 3 h. The “gastric emptying time T½” value [4] was 166 (18) min and the “gastric emptying time Tlag” value ([4]; significant vs placebo (p < 0.05)) was 114 (18)* min.
